Measurements reported in patent US8853183B2, “Prognosis and treatment of breast cancer” (Trustees of Darmouth College, priority 2005, dated 2014).

Columns and labels:
[1] = tested on: breast cancer cells; details: Pizer, et al. (1996); cited from earlier work
[2] = tested on: human ovarian tumor cell xenografts; details: nude mice; Pizer, et al. (1996); cited from earlier work
[3] = tested on: lipogenic prostate cancer cells; details: Kridel, et al. (2004); cited from earlier work
[4] = tested on: lipogenic prostate cancer cells xenografts; details: immunodeficient mice; Kridel, et al. (2004); cited from earlier work
[5] = tested on: human FAS gene promoter; assay: Human FAS gene promoter fragment luciferase reporter; assay type: cell-based; details: 48 hours exposure
Experimental: (§1) Using a human S14 gene promoter fragment fused to a luciferase reporter, the mechanism underlying R1881-induced accumulation of S14 mRNA was determined. The human S14 construct contained the proximal 4003 bp of the S14 promoter (Campbell, et al. (2003) Endocrinol. 144:5242-5248). […] Nevertheless, R1881 induced promoter activity by 4-fold. Employing a 157 bp fragment of the human FAS gene promoter that is also devoid of progesterone response elements (Swinnen, et al. (1997) supra), the effect of R1881 on FAS gene expression was examined.
(§2) T47D or HEK 293 cells were plated at 50% confluence in 75 cm^2 flasks and the next morning were transfected with 8 μg plasmid DNA in 48 μL FUGENE (Roche, Indianapolis, Ind.) in 5% charcoal-stripped serum-containing media without antibiotics. To ensure uniform transfection efficiency, cells were trypsinized, mixed, and redistributed into 6-well plates 8 hours later. Forty-eight hours post-transfection, culture medium was removed, and extracts prepared in reporter lysis buffer (250 μL/well; PROMEGA, Madison, Wis.). Lysates (20 μL) were assessed for luciferase activity using an LMaxII384 luminometer (MOLECULAR DEVICES, Sunnyvale, Calif.), and normalized to protein concentrations (BCA Protein Assay; Pierce, Rockland, Ill.).

[6] = tested on: human S14 gene promoter; assay: Human S14 gene promoter fragment luciferase reporter; assay type: cell-based; details: proximal 4003 bp of human S14 promoter fused to luciferase
Experimental: as §1, §2

[7] = tested on: SREBP-1c mRNA; assay: Real-time RT-PCR of SREBP-1c mRNA in T47D cells; details: 10 nM, within 48 hours, cyclophilin as control
[8] = tested on: S14 mRNA; details: Heemers, et al. (2000); cited from earlier work
[9] = tested on: FAS mRNA; assay: Real-time RT-PCR of FAS mRNA in T47D cells
[10] = tested on: S14 protein; assay: Western blot of S14 protein in T47D cells; details: single stimulus; R1881 10 nM 48 hours or adenovirus alone
[11] = tested on: S14 mRNA; assay: Real-time RT-PCR of S14 mRNA in T47D cells
[12] = 10 nM, within 48 hours, T47D cells, cyclophilin as control
[13] = time course using nM R5020, T47D cells

SMILES: C/C=C/C/C=C/CCC(=O)[C@H]1O[C@H]1C(N)=O [Cerulenin]
- apoptosis of breast cancer cells [1]: cause apoptosis
- growth of human ovarian tumor cell xenografts [2]: inhibit the growth

SMILES: CCCCCCCCCCC[C@@H](C[C@@H]1OC(=O)[C@H]1CCCCCC)OC(=O)[C@H](CC(C)C)NC=O [Orlistat]
- apoptosis of lipogenic prostate cancer cells in culture [3]: causes apoptosis
- apoptosis of lipogenic prostate cancer cells in xenografts [4]: causes apoptosis

SMILES: C[C@]1(O)CC[C@H]2[C@@H]3CCC4=CC(=O)CCC4=C3C=C[C@@]21C [R1881]
- FAS promoter induction ([5]; 157 bp fragment of human FAS gene promoter): 4 fold
- FAS promoter response, construct with sterol response element deleted [5]: markedly reduced
- S14 promoter activity induction [6]: 4 fold
- SREBP-1c mRNA induction [7]: significantly induced
- S14 mRNA induction in T47D cells [8]: significantly induces
- FAS mRNA induction [9, 12]: significantly induced
- FAS mRNA induction by R1881 in presence of Ad-β-gal ([9]; T47D cells): ~2 fold
- S14 protein (~16 kD band) on western blot [10]: faint band
- S14 mRNA induction [11, 12]: significantly induced
- S14 mRNA induction by R1881 in presence of control adenovirus (Ad-β-gal) ([11]; R1881 10 nM, RNA harvested 40 hours later, MOI 50): ~8 fold

SMILES: CCC(=O)[C@@]1(C)CC[C@H]2[C@@H]3CCC4=CC(=O)CCC4=C3CC[C@@]21C [R5020]
- S14 mRNA induction in T47D cells [8]: significantly induces
- FAS mRNA induction, time course [9, 13]: comparable to that observed with R1881
- lag time between application of the hormone and onset of accumulation of FAS mRNA ([9]; time course, T47D cells): > 10 h
- S14 mRNA induction, time course [11, 13]: comparable to that observed with R1881
- lag time between application of the hormone and onset of accumulation of S14 mRNA ([11]; time course, T47D cells): > 10 h
